We go through 4 compounds from patent US7566720B2, “2-pyridinyl-6,7,8,9-tetrahydropyrimido[1,2-a] pyrimidin-4-one and 7-pyridinyl-2,3-dihydroimidazo[1,2-a] pyrimidin-5(1H)one derivatives” (Sanofi-Aventis, priority 2000, dated 2009).

Structures can show the parent of a compound that is named as a salt.

The melting point is the temperature of the solid-liquid transition. In the case of `O=C(CCc1ccccc1)N1CCCn2c1nc(-c1ccncc1)cc2=O` (as salt: salt) [Compound No 25 of Table 1, 9-[3-phenylpropanoyl]-2-pyridin-4-yl-6,7,8,9-tetrahydro-4H-pyrimido[1,2-a]pyrimidin-4-one], the melting point is 158 to 160 °C. The value for `CC(C(=O)c1ccccc1)N1CCCn2c1nc(-c1ccncc1)cc2=O` (racemic) (as salt: hydrochloride) [Compound No 73 of Table 1, 9-[1-methyl-2-oxo-2-phenyl-ethyl]-2-pyridin-4-yl-6,7,8,9-tetrahydro-4H-pyrimido[1,2-a]pyrimidin-4-one] was 194 to 196 °C; that for `CC(C(O)c1ccccc1)N1CCCn2c1nc(-c1ccncc1)cc2=O` (racemic) [Compound No 74 of Table 1, 9-[1-methyl-2-hydroxy-2-phenyl-ethyl]-2-pyridin-4-yl-6,7,8,9-tetrahydro-4H-pyrimido[1,2-a]pyrimidin-4-one] was 232 to 234 °C. Regarding `O=C(CCc1ccccc1)N1CCCn2c1nc(-c1ccncc1)cc2=O` [Compound No 25 of Table 1, 9-[3-phenylpropanoyl]-2-pyridin-4-yl-6,7,8,9-tetrahydro-4H-pyrimido[1,2-a]pyrimidin-4-one], the melting point was 230 to 232 °C.
